Source: patent US20250257069A1, “JAK INHIBITOR ANALOGS, FORMULATIONS, AND USES THEREOF” (THE REGENTS OF THE UNIVERSITY OF MICHIGAN, priority 2022, published 2025)
Read-outs that look alike come from different tables or passages of the source. Each block holds one compound with its values, some of them ahead of it.

Tests used:
JAK1 = JAK1 (Homo sapiens (Human), UniProt P23458); experiment: Kinase-Glo Max JAK1 kinase assay (BPS Bioscience kit); type: biochemical; settings: purified enzyme, 0.01-10,000 nM
Sequence of JAK1 (P23458 whole entry): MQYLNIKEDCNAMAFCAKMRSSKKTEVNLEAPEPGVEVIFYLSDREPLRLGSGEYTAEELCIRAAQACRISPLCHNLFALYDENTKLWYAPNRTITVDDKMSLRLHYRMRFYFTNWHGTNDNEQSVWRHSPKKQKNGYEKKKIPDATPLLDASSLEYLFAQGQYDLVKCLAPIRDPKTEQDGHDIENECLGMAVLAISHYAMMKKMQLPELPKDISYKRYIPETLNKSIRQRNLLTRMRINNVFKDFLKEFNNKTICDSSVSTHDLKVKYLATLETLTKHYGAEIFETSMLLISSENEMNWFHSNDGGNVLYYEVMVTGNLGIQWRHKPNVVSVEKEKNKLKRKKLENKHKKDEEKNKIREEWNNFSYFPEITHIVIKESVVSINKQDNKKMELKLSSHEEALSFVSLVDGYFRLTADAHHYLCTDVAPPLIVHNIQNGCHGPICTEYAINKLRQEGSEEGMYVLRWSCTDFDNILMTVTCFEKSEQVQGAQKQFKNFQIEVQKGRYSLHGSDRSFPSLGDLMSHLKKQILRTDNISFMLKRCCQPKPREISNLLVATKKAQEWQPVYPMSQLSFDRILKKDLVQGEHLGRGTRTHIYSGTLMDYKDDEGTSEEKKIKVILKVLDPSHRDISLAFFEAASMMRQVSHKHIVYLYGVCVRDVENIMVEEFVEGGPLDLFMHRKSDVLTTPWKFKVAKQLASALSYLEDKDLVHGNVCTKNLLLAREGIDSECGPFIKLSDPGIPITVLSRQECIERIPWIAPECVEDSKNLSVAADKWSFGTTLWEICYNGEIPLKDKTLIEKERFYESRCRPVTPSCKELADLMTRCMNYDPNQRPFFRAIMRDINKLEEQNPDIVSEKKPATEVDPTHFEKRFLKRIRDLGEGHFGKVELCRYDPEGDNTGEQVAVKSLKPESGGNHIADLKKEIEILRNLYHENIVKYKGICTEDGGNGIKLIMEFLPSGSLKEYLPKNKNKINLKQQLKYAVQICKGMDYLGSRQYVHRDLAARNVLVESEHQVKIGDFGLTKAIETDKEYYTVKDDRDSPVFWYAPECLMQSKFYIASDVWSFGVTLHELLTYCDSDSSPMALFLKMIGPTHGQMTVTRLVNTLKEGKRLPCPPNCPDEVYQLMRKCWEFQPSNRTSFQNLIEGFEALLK
Experimental: (§1) In vitro activity to inhibit JAK enzymes: JAK1, JAK2, JAK3, TYK2 assay kits were obtained from BPS Bioscience (San Diego, CA, USA). The assays were conducted according to manufacturer's protocols in 96-well microplates. Briefly, master mixtures (25 μL per well) were prepared for JAK1 and TYK2 assays (6 μL 5× kinase assay buffer+1 μL ATP (500 μM)+5 μL×10 IRS1-tide+13 μL distilled water) or for JAK2 and JAK3 assays (6 μl 5× kinase assay buffer+1 μl ATP (500 μM)+1 μl PTK substrate Poly(Glu:Tyr 4:1) (10 mg/mL)+17 μL distilled water), respectively. […] The reaction mixtures were incubated at 30° C. for 40 minutes. Finally, 50 μL of Kinase-Glo Max reagent (Promega, Madison, WL USA) was added to each well and the reactions were performed in darkness for 15 minutes at room temperature. The luminescence of the reaction mixture was read on a Synergy 2 microplate reader (Biotek).

JAK2 = JAK2 (Homo sapiens (Human), UniProt O60674); experiment: Kinase-Glo Max JAK2 kinase assay (BPS Bioscience kit); type: biochemical; settings: purified enzyme, 0.01-10,000 nM
Sequence of JAK2 (O60674 whole entry): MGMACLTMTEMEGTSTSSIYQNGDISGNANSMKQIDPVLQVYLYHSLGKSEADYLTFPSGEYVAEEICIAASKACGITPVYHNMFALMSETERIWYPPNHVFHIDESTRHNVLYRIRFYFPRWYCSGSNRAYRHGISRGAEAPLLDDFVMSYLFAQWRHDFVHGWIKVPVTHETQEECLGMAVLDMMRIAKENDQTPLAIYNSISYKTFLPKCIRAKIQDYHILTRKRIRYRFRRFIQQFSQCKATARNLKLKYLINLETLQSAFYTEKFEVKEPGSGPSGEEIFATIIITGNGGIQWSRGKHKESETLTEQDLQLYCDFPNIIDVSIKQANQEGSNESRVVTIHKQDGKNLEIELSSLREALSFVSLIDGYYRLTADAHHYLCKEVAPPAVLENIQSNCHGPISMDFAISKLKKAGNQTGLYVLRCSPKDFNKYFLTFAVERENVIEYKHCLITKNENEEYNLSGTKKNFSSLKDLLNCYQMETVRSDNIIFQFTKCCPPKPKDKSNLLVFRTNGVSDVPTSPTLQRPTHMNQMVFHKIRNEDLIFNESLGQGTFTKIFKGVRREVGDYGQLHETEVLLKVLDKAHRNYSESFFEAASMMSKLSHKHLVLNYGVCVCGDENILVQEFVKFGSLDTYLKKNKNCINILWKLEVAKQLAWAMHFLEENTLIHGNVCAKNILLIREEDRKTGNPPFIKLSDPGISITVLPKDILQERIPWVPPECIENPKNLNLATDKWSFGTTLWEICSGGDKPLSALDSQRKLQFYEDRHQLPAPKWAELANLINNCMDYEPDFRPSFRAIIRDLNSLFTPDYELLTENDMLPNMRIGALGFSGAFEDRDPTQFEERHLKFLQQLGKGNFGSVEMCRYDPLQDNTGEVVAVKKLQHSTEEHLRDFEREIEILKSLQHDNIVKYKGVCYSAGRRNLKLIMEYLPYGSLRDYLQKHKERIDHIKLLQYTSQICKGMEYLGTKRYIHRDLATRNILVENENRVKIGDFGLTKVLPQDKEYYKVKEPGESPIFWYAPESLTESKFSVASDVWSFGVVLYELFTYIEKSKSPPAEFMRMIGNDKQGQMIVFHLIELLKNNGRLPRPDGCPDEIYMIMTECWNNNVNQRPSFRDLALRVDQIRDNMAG

JAK3 = JAK3 (Homo sapiens (Human), UniProt P52333); experiment: Kinase-Glo Max JAK3 kinase assay (BPS Bioscience kit); type: biochemical; settings: purified enzyme, 0.01-10,000 nM
Sequence of JAK3 (P52333 whole entry): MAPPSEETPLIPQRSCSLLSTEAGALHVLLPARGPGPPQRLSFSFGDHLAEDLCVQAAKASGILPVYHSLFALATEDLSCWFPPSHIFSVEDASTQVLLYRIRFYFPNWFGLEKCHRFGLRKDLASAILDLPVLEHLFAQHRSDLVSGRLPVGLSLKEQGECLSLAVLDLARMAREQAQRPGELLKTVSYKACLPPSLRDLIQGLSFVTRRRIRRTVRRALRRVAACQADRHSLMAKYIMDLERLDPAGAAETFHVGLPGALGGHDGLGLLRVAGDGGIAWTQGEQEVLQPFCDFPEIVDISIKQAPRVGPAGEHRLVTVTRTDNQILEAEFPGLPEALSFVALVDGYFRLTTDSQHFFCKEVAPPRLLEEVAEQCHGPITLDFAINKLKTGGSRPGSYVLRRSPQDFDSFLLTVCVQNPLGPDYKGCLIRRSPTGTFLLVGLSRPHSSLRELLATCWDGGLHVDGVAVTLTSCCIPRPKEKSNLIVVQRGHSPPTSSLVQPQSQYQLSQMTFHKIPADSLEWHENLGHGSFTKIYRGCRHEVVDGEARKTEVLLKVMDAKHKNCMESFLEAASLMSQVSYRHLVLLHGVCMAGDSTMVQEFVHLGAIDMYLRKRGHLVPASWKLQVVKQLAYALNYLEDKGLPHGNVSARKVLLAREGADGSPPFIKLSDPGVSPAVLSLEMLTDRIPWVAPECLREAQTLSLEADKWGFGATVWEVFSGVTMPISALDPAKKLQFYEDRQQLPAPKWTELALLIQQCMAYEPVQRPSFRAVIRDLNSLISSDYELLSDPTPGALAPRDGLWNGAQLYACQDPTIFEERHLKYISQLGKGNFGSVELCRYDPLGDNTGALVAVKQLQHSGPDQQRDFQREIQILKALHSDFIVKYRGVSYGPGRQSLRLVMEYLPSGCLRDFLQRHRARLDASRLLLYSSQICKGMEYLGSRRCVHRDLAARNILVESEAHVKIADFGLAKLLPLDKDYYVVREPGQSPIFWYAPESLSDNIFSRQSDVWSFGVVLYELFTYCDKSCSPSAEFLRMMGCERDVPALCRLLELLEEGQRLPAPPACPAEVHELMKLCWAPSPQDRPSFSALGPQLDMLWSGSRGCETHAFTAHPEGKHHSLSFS

TYK2 = TYK2 (Homo sapiens (Human), UniProt P29597); experiment: Kinase-Glo Max TYK2 kinase assay (BPS Bioscience kit); type: biochemical; settings: purified enzyme, 0.01-10,000 nM
Sequence of TYK2 (P29597 whole entry): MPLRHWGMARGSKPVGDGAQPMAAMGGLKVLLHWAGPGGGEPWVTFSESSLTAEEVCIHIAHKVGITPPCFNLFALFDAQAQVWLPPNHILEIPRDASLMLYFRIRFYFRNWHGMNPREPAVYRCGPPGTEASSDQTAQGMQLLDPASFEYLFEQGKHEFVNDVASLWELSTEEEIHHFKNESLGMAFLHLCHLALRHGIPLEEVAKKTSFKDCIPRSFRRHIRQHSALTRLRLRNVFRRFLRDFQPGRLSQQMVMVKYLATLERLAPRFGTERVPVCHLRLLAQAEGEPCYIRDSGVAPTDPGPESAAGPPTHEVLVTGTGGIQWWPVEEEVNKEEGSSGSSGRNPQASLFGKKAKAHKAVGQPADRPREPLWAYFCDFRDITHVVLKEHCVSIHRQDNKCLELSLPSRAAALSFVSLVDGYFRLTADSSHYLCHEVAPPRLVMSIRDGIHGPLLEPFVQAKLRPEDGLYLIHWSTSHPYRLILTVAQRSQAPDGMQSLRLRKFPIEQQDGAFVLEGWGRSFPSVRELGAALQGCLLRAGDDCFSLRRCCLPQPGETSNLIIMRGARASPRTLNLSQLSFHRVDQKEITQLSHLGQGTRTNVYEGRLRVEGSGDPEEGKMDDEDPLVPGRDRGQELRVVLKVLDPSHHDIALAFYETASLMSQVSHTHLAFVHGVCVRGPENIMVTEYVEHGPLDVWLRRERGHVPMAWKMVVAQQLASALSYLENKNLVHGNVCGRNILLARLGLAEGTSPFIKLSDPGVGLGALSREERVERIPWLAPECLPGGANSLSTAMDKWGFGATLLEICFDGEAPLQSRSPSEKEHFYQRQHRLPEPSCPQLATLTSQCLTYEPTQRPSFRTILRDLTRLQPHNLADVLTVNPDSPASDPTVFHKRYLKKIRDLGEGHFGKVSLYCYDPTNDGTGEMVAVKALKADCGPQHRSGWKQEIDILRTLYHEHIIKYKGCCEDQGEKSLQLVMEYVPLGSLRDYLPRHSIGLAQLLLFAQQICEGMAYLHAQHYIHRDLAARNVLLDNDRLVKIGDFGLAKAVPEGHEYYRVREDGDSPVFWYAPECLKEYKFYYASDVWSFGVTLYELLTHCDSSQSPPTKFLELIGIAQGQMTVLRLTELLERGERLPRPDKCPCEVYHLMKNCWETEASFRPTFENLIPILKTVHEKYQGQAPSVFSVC
Experimental: as §1

HEL 92.1.7 cells = experiment: Anti-proliferative assay in HEL cells (CellTiter 96 Aqueous); type: cell-based, Human; settings: 3 days
Experimental: (§2) Cell Culture and anti-proliferative assay. […] Cells were incubated at 37° C. in a humidified atmosphere of 5% CO2. Cells were seeded into 96-well culture plates at the density of approximately 8000 cells per well and treated with various concentrations of compounds for 3 days in final volumes of 200 μL. Upon end point, cells were treated using CellTiter 96 Aqueous Assay Reagents (Promega Corporation, Madison, USA) according to the provider's instruction. Briefly, MITS and PMS solution were thawed and mixed (20:1, v/v) before use and pipet appropriate amount of the mixed solution into each well of the 96 well assay plates. The plates were incubated for 1-4 hours at 37° C. in a humidified atmosphere of 5% CO2. The absorbance at 490 nm was recorded using CYTATION 5 imaging reader (BioTek, VT, USA). IC50 values were calculated using percentage of growth versus untreated control.

SET-2 cells = experiment: Anti-proliferative assay in SET-2 cells (CellTiter 96 Aqueous); type: cell-based, Human; settings: 3 days
Experimental: as §2

[1] = Pharmacokinetics in mice after oral MMT3-72 (LC-MS/MS of plasma, GI tissues, GI content); type: in vivo, C57BL/6 female mice
Experimental: LC-MS analysis of MMT3-72and MMT3-72-M2 in biological samples: MMT3-72 and MMT3-72-M2 concentrations in plasma (ng/mil) and tissues (ng/g) were determined by the LC-MS/MS method that was developed and validated for this study. The HPLC method was conducted on a Shimadzu LC-20AD HPLC system (Kyoto, Japan), and chromatographic separation was achieved using a Waters XBridage reverse phase C18 column (5 cm×2.1 mm I.D., packed with 3.5 μm). The flow rate of gradient elution was 0.4 ml/min with mobile phase A (0.1% formic acid in purified deionized water) and mobile phase B (0.1% formic acid in acetonitrile). An AB Sciex QTrap 4500 mass spectrometer (AB Sciex, Framingham, USA) in the positive-ion multiple reaction monitoring (MRM) mode was used for detection. Protonated molecular ions and the respective ion products were monitored at the transitions of m/z 811.3>737.4 for MMT3-72 and 472.3>416.0 for the MMT3-72-M2. Data was processed with software Analyst (version 1.6).
Pharmacokinetics in mice. Briefly, C57BL/6 female mice were orally dosed with 10 mg/kg MMT3-72. At 0.5, 2, 4, 12, 24 h, mice were sacrificed, and blood samples were collected by drawing directly from the heart Intestinal tissue samples were collected and homogenized in PBS to 10% homogenate. The contents of small and large intestine were collected and homogenized in PBS. Afterwards, concentrations of MMT3-72, MMT3-72-M2,5-ASA in the plasma, intestinal tissues, and intestinal content were determined by liquid chromatography-tandem mass spectrometry (LC-MS/MS) analysis using method described above.

[2] = In-vivo metabolite identification in mouse plasma, colon and feces; settings: 6 h after oral 10 mg/kg MMT3-72
Experimental: Activation of MMT73-72 and Metabolite identification: In-vivo metabolite identification was conducted using mouse plasma, colon and feces samples that collected at 6 h after oral administration of MMT3-72 (10 mg/kg), Liquid chromatography tandem mass spectrometry was employed to separate and identify the possible metabolites. The LC-MS/MS method consisted of a Shimadzu LC-20AD HPLC system (Kyoto, Japan). Chromatographic separation of MMT3-72 and its metabolites was achieved using a Waters XBridage reverse phase C18 column (15 cm×2.1 mm I.D., packed with […]). A high resolution AB Sciex X500R QTOF mass spectrometer (AB Sciex, Farmingham, USA) in the positive-ion Information Dependent Acquisition (IDA) mode was used for confirmation of accurate molecular weight. The mass range was recorded from m/z 100 to 1000 Da. The collision energy was set to 50 V for TOF MSMS. Data was collected with software SCIEX OS, and then processed with software Metabolite Pilot 2.0 (AB Sciex, Farmingham, USA).

[3] = following a single oral dose; cited from earlier work
DSS-induced colitis [4] = experiment: DSS-induced colitis in mice; type: in vivo, C57BL/6 female mice; settings: oral; for improvement of DAI score or disease severity (in words): 1 mg/kg; for mice that developed moderate colitis / mice that developed severe colitis / mice that developed severe colitis with gross bleeding: day 5, n=10
Experimental: In vivo efficacy of MMT3-72 in treatment of DSS-induced colitis in mice: C57BL/6 female mice 6-8 weeks purchased from Charles River Laboratories and were randomly divided into different treatment groups. Acute colitis was induced by administering 3% DSS (MP Biomedicals, CA, USA) in distilled water continuously for 5 days and the control group received pure water (Snider, et al., Methods Mol Biol 2016, 1438, 245-254). […] Drugs were administered every other day orally by gavage in volume of 0.1 mL/10 g body weight. During the model establishment, body weight, stool consistency and gross blood in feces were monitored and recorded daily. After 5 days, mice were sacrificed and blood was collected. Serum was obtained by centrifugation and stored at −80° C. for further immune assay. Colon was excised and the length was measured.
To evaluate the efficacy of MMT3-72 in the treatment of UC in vivo, a colitis model was established in mice using dextran sodium sulfate (DSS). DSS in drinking water could trigger colitis in mice. The DSS-induced colitis model is widely used because of its relatively easy administration and high similarity with human UC. In this study, mice treated with 3% DSS water developed symptoms of colitis such as bloody stools and diarrhea on day 5. Disease activity index (DAI) was monitored for the severeness of disease in mice: Normal stool consistency with negative hemoccult: score 0; Soft stools with positive hemoccult: score 1; Very soft stools with traces of blood: score 2; Watery stools with visible rectal bleeding: score 3. […]. […].

DSS-induced colitis [5] = experiment: H&E staining of colon tissues in DSS-induced colitis model; type: in vivo, mice; settings: 5, 10 mg/kg
Experimental: H&E Staining of Colon tissues: After dissecting and transecting the colon, a feeding needle and 5 ml syringe were used to intubate and flush the colon with ice-cold PBS until the stool was flushed out. Scissors were used to incise longitudinally from distal to proximal end of the colon and the colon tissue could then be expanded as a flat sheet. The edge of the distal colon was grasped using a pair of forceps and the colon tissue was rotated into a swiss roll. The roll was firmly grasped and transected using a 27 G ½ needle. […] The Swiss roll was then paraffin-embedded, sectioned, mounted, and stained with H&E to determine the extent of damage to the colon from the distal (inside end) to the proximal (outside end).

IC50 (JAK1): 2 nM
IC50 (JAK2): 16.3 nM
IC50 (JAK3): 701 nM
IC50 (TYK2): 55.2 nM
Cmax ([1]; female, C57BL/6, mouse, colon tissue and small intestinal tissues, oral 10 mg/kg MMT3-72, read-out: Cmax in colon tissue and small intestinal tissues): > 1500 ng/g
Cmax ([1]; female, C57BL/6, mouse, plasma, oral 10 mg/kg MMT3-72, read-out: Cmax in plasma): 8 ng/mL
concentration at 24 h ([1]; female, C57BL/6, mouse, small and large intestine tissues, oral 10 mg/kg MMT3-72, at 24 hrs, read-out: Cmin in small and large intestine tissues): 88.5 ng/mL
concentration in colon content relative to small intestine content ([1]; oral 10 mg/kg MMT3-72): 10 fold
time after which undetectable in plasma ([1]; oral 10 mg/kg MMT3-72): 4 h
Compound: Cc1cnc(Nc2ccc(OCCO)cc2)nc1Nc1cccc(S(=O)(=O)NC(C)(C)C)c1 [MMT3-72-M2, N-(tert-butyl)-3-((2-((4-(2-hydroxyethoxy)phenyl)amino)-5-methylpyrimidin-4-yl)amino)benzenesulfonamide]
IC50 (HEL 92.1.7 cells; Homo sapiens, 72 h): 2590 nM
IC50 (SET-2 cells; Homo sapiens, 72 h): 332 nM
detection in plasma, colon tissue and feces [2]: only detected in the colon tissues and the feces with low level in the plasma

Compound: Deucravacitinib
IC50 (HEL 92.1.7 cells): ~347000 nM
IC50 (SET-2 cells): 7380 nM

Compound: Cc1cnc(Nc2ccc(OCCN3CCCC3)cc2)nc1Nc1cccc(S(=O)(=O)NC(C)(C)C)c1 [Fedratinib]
IC50 (HEL 92.1.7 cells; Homo sapiens, 72 h): 904 nM
IC50 (SET-2 cells; Homo sapiens, 72 h): 210 nM
portion excreted in feces as unchanged drug [3]: 23%
portion excreted to GI tract in feces [3]: 77%

Compound: C[C@@H]1CCN(C(=O)CC#N)C[C@@H]1N(C)c1ncnc2[nH]ccc12 [Tofacitinib, reference compound]
improvement of DAI score or disease severity (in words) (DSS-induced colitis [4]): did not improve DAI score or disease severity
improvement of DAI score (in words) (DSS-induced colitis [4]; 5 mg/kg): did not show any improvement of DAI score
mice that developed moderate colitis (DSS-induced colitis [4]; 5 mg/kg): 80%
mice that developed severe colitis (DSS-induced colitis [4]; 5 mg/kg): 40%
improvement of DAI score (in words) (DSS-induced colitis [4]; 10 mg/kg): showed improvement of DAI score
recovery of colon length from DSS-induced colitis (DSS-induced colitis [4]; 10 mg/kg): recovered the colon length
mice that developed moderate colitis (DSS-induced colitis [4]; 10 mg/kg): 20%
mice that developed severe colitis with gross bleeding (DSS-induced colitis [4]; 10 mg/kg): 10%

IC50 (JAK1): 199 nM
IC50 (JAK2): 448 nM
IC50 (JAK3): 6820 nM
IC50 (TYK2): 2980 nM
Cmax ([1]; female, C57BL/6, mouse, GI content (stomach, small intestine and colon content), oral 10 mg/kg MMT3-72, read-out: Cmax in GI content (stomach, small intestine and colon content)): > 50000 ng/g
detection in small intestine tissues, colon tissue or systemic circulation ([1]; oral 10 mg/kg MMT3-72, 0-24 hrs): not detected
Compound: Cc1cnc(Nc2ccc(OCCOc3ccc(/N=N/c4ccc(C(=O)NCCC(=O)O)cc4)cc3C(=O)O)cc2)nc1Nc1cccc(S(=O)(=O)NC(C)(C)C)c1 [MMT3-72, (E)-2-(2-(4-((4-((3-(N-(tert-butyl)sulfamoyl)phenyl)amino)-5-methylpyrimidin-2-yl)amino)phenoxy)ethoxy)-5-((4-((2-carboxyethyl)carbamoyl)phenyl)diazenyl)benzoic acid]
IC50 (HEL 92.1.7 cells; Homo sapiens, 72 h): 5590 nM
IC50 (SET-2 cells; Homo sapiens, 72 h): 515 nM
detection in plasma, colon tissue and feces [2]: only detected in the feces with no detection in the plasma and the colon tissues
improvement of DAI score or disease severity (in words) (DSS-induced colitis [4]): did not improve DAI score or disease severity
improvement of DAI score versus DSS induced colitis (DSS-induced colitis [4]; 5 mg/kg): 5 fold
mice that developed moderate colitis (DSS-induced colitis [4]; 5 mg/kg): 10%
mice that developed severe colitis (DSS-induced colitis [4]; 5 mg/kg): no mouse developed severe colitis
improvement of DAI score in DSS-induced colitis model (DSS-induced colitis [4]; 10 mg/kg): 10 fold
recovery of colon length from DSS-induced colitis (DSS-induced colitis [4]; 10 mg/kg): recovered the colon length
mice that developed moderate colitis (DSS-induced colitis [4]; 10 mg/kg): no mice
mice that developed severe colitis with gross bleeding (DSS-induced colitis [4]; 10 mg/kg): no mice
epithelial loss and immune cell infiltration in colon tissue (H&E) (DSS-induced colitis [5]): reduced epithelium disruption and infiltration of immune cells in colon tissues
epithelial loss and immune cell infiltration in colon tissue (H&E) (DSS-induced colitis [5]; listed as MMT3972): reduced epithelial loss and decreased infiltration of immune cells

Compound: CC[C@@H]1CN(C(=O)NCC(F)(F)F)C[C@@H]1c1cnc2cnc3[nH]ccc3n12 [Upadacitinib]
IC50 (HEL 92.1.7 cells; Homo sapiens, 72 h): 1010 nM
IC50 (SET-2 cells; Homo sapiens, 72 h): 69.6 nM

Compound: COCCOCc1cc(Nc2ncc(C)c(Nc3cccc(S(=O)(=O)NC(C)(C)C)c3)n2)ccc1OCCN1CCCC1 [MMT3-83]
IC50 (HEL 92.1.7 cells): 2040 nM
IC50 (SET-2 cells): 645 nM

Compound: N#CC[C@H](C1CCCC1)n1cc(-c2ncnc3[nH]ccc23)cn1 [Ruxolitinib]
IC50 (HEL 92.1.7 cells; Homo sapiens, 72 h): 114 nM
IC50 (SET-2 cells; Homo sapiens, 72 h): ~145 nM
